This is an account of results in patent US7037656B2, “Methods and compositions for identifying ligands for nuclear receptors” (priority 2000, dated 2006).

The target of the assay is T1, Dm ΔN EcR + RXRγ + GRIP1 (Drosophila melanogaster, UniProt P34021).
T1 construct: ubiquitin (human, 76 aa) (N, cleaved yes); expressed in transfected cells
The experiment in a line: Yeast 6x EcRE-lacZ β-galactosidase transactivation assay. The format is cell-based, Drosophila melanogaster; mouse. As to conditions: RH 5992 10 μM, 4 hours, DMSO control 0.364. The protocol: The human RXR α (Genbank accession number X52773), mouse RXR β (Genbank accession number X66224) or mouse RXR γ (Genebank accession number X66225) subtypes were expressed in yeast-E. coli multicopy 2μ expression plasmids under regulation of CUP1 promoter with the LEU2 selective marker (1).
Briefly, yeast cells are cultured in 5 mL of YPD liquid medium overnight at 30° C. The cell culture was diluted 1:20 in YPD media and further grown until cell density reached an O.D of 0.6. at OD600. The cells were pelleted by centrifugation and washed with 10 mL of TE+0.1M lithium acetate. Cells are then resuspended in 10 mL TE+0.1M lithium acetate and incubated at 30° C. for 1 hour. Cells are collected and resuspended in 0.5 mL of TE+ 0.1M lithium acetate. […]
Using the transformation method set forth above, yeast were co-transformed with a reporter gene as shown in FIG. 2 and the expression vector encoding the full-length D. melanogaster ecdysone receptor, DmEcR (FIG. 3A) in the presence or absence of the Dm EcR heterodimer partner, DmUSP (FIG. 4A). […] As the N-terminal portion of the Dm EcR receptor is reported to play a role in ligand independent transactivation, an expression vector containing an N-terminal deletion in the EcR was constructed (see FIG. 3B) and assessed in the β-galactosidase assays described above. […]

T1 sequence (P34021 221-878 limits assumed, stated change not applied): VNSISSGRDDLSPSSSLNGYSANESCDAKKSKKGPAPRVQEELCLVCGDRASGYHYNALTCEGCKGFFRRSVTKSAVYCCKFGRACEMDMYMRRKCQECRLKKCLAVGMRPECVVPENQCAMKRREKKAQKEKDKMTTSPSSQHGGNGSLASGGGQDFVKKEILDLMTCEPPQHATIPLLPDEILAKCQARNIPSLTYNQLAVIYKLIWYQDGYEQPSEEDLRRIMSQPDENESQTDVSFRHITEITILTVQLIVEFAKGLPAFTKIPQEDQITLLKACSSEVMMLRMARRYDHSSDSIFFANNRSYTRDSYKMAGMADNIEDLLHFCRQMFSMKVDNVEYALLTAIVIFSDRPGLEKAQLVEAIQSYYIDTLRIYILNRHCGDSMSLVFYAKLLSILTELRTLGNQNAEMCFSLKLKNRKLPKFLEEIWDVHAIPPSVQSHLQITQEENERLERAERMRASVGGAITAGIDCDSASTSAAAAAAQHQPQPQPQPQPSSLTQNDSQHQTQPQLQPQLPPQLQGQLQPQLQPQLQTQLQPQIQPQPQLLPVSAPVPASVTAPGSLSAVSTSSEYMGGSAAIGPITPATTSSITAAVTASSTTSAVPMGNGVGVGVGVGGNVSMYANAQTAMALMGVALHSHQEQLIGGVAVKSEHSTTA
T1 sequence (P28705 whole entry partner): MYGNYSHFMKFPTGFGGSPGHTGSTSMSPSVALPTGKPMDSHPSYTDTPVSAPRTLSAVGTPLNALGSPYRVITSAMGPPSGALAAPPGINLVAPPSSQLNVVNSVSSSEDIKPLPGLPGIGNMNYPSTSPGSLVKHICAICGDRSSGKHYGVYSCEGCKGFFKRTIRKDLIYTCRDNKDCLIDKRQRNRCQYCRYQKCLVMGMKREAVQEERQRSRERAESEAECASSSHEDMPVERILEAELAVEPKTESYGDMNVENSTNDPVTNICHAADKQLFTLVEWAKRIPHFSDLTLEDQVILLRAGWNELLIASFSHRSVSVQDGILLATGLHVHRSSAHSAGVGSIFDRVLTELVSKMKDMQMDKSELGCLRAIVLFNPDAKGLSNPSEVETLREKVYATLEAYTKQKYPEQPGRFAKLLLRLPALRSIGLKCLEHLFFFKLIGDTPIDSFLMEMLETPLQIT
T1 sequence (Q61026 322-1121 partner limits assumed): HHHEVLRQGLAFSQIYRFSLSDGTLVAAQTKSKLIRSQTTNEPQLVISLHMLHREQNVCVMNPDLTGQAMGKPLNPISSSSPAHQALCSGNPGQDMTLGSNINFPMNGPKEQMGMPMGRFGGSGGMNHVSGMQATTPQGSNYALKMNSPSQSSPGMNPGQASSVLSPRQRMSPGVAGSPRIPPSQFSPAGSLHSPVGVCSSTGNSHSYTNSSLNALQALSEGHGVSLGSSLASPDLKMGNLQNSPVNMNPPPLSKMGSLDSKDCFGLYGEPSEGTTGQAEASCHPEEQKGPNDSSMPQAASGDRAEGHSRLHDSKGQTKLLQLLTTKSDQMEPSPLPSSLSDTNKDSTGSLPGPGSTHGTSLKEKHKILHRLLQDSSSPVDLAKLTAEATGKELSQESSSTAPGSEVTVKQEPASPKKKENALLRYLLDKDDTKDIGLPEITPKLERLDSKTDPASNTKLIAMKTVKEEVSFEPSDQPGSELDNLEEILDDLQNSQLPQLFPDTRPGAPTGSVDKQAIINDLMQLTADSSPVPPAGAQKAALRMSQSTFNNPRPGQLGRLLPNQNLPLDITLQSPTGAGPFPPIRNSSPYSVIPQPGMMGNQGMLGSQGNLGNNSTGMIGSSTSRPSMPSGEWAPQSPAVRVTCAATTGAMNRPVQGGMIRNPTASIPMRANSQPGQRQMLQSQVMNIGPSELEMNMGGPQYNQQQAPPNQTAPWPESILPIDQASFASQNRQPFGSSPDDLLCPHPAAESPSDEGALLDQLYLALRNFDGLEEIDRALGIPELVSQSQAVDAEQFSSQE

For the compound `CCc1ccc(C(=O)NN(C(=O)c2cc(C)cc(C)c2)C(C)(C)C)cc1` [RH 5992, tebufenozide], the β-galactosidase activity was determined as 1.283.
